Laboratory results reported in US20260191863A1, “PYRROLOPYRIMIDINE COMPOSITIONS FOR TREATMENT OF ITK MEDIATED CONDITIONS” (ACLARIS THERAPEUTICS, INC., priority 2022, published 2026).
Several values for one entry are separate records, joined by “and”; a condition that tells them apart may be missing. Identical values can stand only once. Like-named read-outs stand apart in the source and are kept apart here.

Legend:
[1] = Phase 1 single ascending dose (SAD) study: pharmacokinetics, food effect, formulation bridging; assay type: in vivo, human; conditions: for AUC(0-t): read-out: AUC0-24; for half-life: read-out: T1/2 (converted); for Vd/F: read-out: Vz/F
Experimental: Type of Study—This was an FIH, randomized, observer-blind, placebo-controlled study designed to evaluate the safety, tolerability, PK, and PD of Compound I in healthy subjects. The study consisted of: single ascending dose (SAD) cohorts (1-80 mg/day) plus formulation bridging and food effect (FE) cohorts.
Approximately 64 male and female subjects were enrolled into 8 planned cohorts in the SAD study. In each cohort, a total of 8 subjects were randomized to receive a single oral capsule dose of Compound I (n=6) or placebo (n=2) in the morning with approximately 240 mL of water after an overnight fast of at least 8 hours.
Cohort 4 was an FE (food effect) cohort where subjects received Compound I capsules or placebo, fasted on Day 1 and Compound I or placebo after a high-fat, high-calorie breakfast on Day 8 after a 7-day washout period.
Cohort 5 was a formulation bridging cohort where subjects will receive Compound I capsules or placebo on Day 1 and Compound I tablets or placebo on Day 8 after a 7-day washout period.
The dosage form of Compound I in Cohorts 6, 7, and 8 were capsules and the subjects will receive a single oral dose of Compound I (n=6) capsules or placebo (n=2) on Day 1 after an overnight fast of at least 8 hours.

[2] = test system: JAK3 (pSTAT5, lymph); assay: SAD ex vivo PD: IL2 stimulated pSTAT5 in lymphocytes; conditions: Homo sapiens, Lymphocyte; SAD study; read-out: Clinical EC50
Excerpt: Secondary Endpoints—Compound I plasma concentrations. Mean change from baseline in ex vivo stimulated pSTAT5 and pSTAT1 (signal transducer and activator of transcription); and in ex vivo stimulated IFNγ mRNA (interferon gamma messenger ribonucleic acid).
Summary of SAD data: FIGS. 4-8 and 9-13 show the SAD dose response, SAD exposure response, and SAD calculated response at Cmax by dose respectively for ITK (IL2 mRNA), ITK (IFNγ mRNA), JAK3 (pSTAT5, lymph), JAK3 (pSTAT5, CD3′ T), and ITK & JAK (IFNγ protein). Clinical and pre-clinical IC50 data for ITK (IL2 mRNA), ITK (IFNγ mRNA), JAK3 (pSTAT5, lymph), JAK3 (pSTAT5, CD3^+ T), and ITK & JAK (IFNγ protein) from the SAD study is shown in table 4.

[3] = test system: ITK (IFNγ mRNA); assay: Pre-clinical αCD3/αCD28 stimulated IFNγ mRNA; assay type: cell-based; conditions: Homo sapiens
[4] = test system: JAK3 (pSTAT5, CD3+ T); assay: Pre-clinical IL2 stimulated pSTAT5 in CD3+ T cells; assay type: cell-based; conditions: Homo sapiens, T-cell
[5] = test system: ITK & JAK (IFNγ protein); assay: Pre-clinical human whole blood αCD3 + IL-15/IFNγ (18 hr); assay type: cell-based
[6] = test system: αCD3 & αCD28 stimulated IL2mRNA; assay: MAD ex vivo PD: αCD3 & αCD28 stimulated IL2 mRNA; assay type: in vivo; conditions: Homo sapiens
Excerpt: (§1) Exploratory Endpoints—Mean change from baseline in cellular, extracellular (secreted), and/or message markers of inflammation.
(§2) EC50 and IC50 data for αCD3 & αCD28 stimulated IL2mRNA, IL15 stimulated IFNγ protein, and αCD3 & IL15 stimulated IFNγ protein is shown in table 9.

[7] = test system: IL15 stimulated IFNγ protein; assay: MAD ex vivo PD: IL15 stimulated IFNγ protein; assay type: in vivo; conditions: Homo sapiens
Excerpt: as §1, §2

[8] = test system: αCD3 & IL15 stimulated IFNγ protein; assay: MAD ex vivo PD: αCD3 & IL15 stimulated IFNγ protein; assay type: in vivo, human
Excerpt: as §1, §2

[9] = test system: ankle diameter swelling (Antigen Induced Arthritis); assay: Rat Antigen Induced Arthritis (AIA) model, ankle diameter swelling; assay type: in vivo; conditions: PO from day 6
Excerpt: The study evaluated the rat AIA kinetics of ankle diameter swelling. Therapeutic model with PO dosing beginning on day 6.

[10] = both sexes, human, in vivo, po, 25 mg, single oral dose 25 mg, tablet
[11] = both sexes, human, in vivo, po, 50 mg, single oral dose 50 mg, capsule, fasted
[12] = both sexes, human, in vivo, po, 80 mg, single oral dose 80 mg, capsule, fasted
[13] = single oral dose 15 mg, capsule, fasted
[14] = single oral dose 15 mg, capsule, fed (high-fat, high-calorie breakfast)

For `C=CC(=O)N1C[C@H](Nc2ncnc3[nH]cc([C@H]4CC4(F)F)c23)CC[C@@H]1C` [Compound I, 1-((2S,5R)-5-((5-((R)-2,2-difluorocyclopropyl)-7H-pyrrolo[2,3-d]pyrimidin-4-yl)amino)-2-methylpiperidin-1-yl)prop-2-en-1-one], which AUC(0-t) [1, 10] is on record?
The AUC(0-t) was 197 ng·h/mL.

And the half-life [1, 10]?
The half-life was 1.75 h.

And the Tmax ([1]; both sexes, human, in vivo, po, 25 mg, single oral dose 25 mg, tablet, read-out: Tmax)?
Its Tmax is 1.07 h.

What about the Vd/F [1, 10] of the same compound?
The Vd/F was 317 L.

What about the AUC(0-inf) [1, 11] of the same compound?
The AUC(0-inf) was 428 ng·h/mL.

And the Cmax [1, 11]?
Its Cmax is 143 ng/mL.

What about the AUC(0-t) [1, 11] of the same compound?
The AUC(0-t) was 426 ng·h/mL.

And the half-life [1, 11]?
The half-life was 1.84 h.

And the Tmax ([1]; both sexes, human, in vivo, po, 50 mg, single oral dose 50 mg, capsule, fasted, read-out: Tmax)?
Its Tmax is 1.24 h.

What about the Vd/F [1, 11] of the same compound?
Its Vd/F is 310 L.

And the AUC(0-inf) [1, 12]?
Its AUC(0-inf) is 676 ng·h/mL.

And the Cmax [1, 12]?
The Cmax was 196 ng/mL.

What about the AUC(0-t) [1, 12] of the same compound?
Its AUC(0-t) is 675 ng·h/mL.

And the half-life [1, 12]?
The half-life was 2.53 h.

And the Tmax ([1]; both sexes, human, in vivo, po, 80 mg, single oral dose 80 mg, capsule, fasted, read-out: Tmax)?
The Tmax was 1.22 h.

What about the Vd/F [1, 12] of the same compound?
Its Vd/F is 432 L.

And the “Effect of high-calorie, high-fat meal on AUC, bioavailability, T1/2” value ([1]; single 15 mg dose)?
Its value is “no significant effect”.

What about the “Reduction of Cmax by a high-calorie, high-fat meal” value ([1]; single 15 mg dose) of the same compound?
Its value is 31%.

And the CL/F ([1]; single oral dose 1 mg, capsule, fasted)?
The CL/F was 168 L/h.

And the CL/F ([1]; single oral dose 3 mg, capsule, fasted)?
The CL/F was 190 L/h.

What about the CL/F ([1]; single oral dose 5 mg, capsule, fasted) of the same compound?
The CL/F was 149 L/h.

What about the CL/F [1, 13] of the same compound?
The CL/F was 155 L/h.

What about the Tmax [1, 13] of the same compound?
The Tmax was 1.09 h.

And the CL/F [1, 14]?
Its CL/F is 160 L/h.

And the Tmax [1, 14]?
The Tmax was 4.99 h.

And the CL/F ([1]; single oral dose 25 mg, capsule, fasted)?
Its CL/F is 162 L/h.

And the CL/F ([1]; single oral dose 25 mg, tablet)?
The CL/F was 126 L/h.

And the CL/F ([1]; single oral dose 50 mg, capsule, fasted)?
Its CL/F is 117 L/h.

And the CL/F ([1]; single oral dose 80 mg, capsule, fasted)?
The CL/F was 118 L/h.

What about the “PK profile (linearity, absorption)” value ([1]; up to 80 mg single dose) of the same compound?
The value was “PK was linear and absorption was fast”.

What about the EC50 [2] of the same compound?
Its EC50 is 0.137 µM.

And the EC50 [3]?
Its EC50 is 0.0173 ± 0.003 µM.

What about the EC50 [4] of the same compound?
The EC50 was 0.14 ± 0.0493 µM.

And the “Potency relative to Ritlecitinib, αCD3 + IL-15/IFNγ (18 hr)” value [5]?
The value was “(3.3 fold*)”.

And the IC50 ([5]; Homo sapiens)?
The IC50 was 0.0036 µg/mL and 10.1 nM.

And the EC50 ([5]; Homo sapiens, 18 h, read-out: Human Whole Blood EC50, αCD3 + IL-15/IFNγ (18 hr))?
The EC50 was 0.01 µM.

What about the EC50 ([5]; Homo sapiens, read-out: Pre-clinical EC50) of the same compound?
Its EC50 is 0.0102 ± 0.0041 µM.

And the EC50 ([5]; human whole blood dual stimulation, read-out: Human Compound I Cp to reach HWB dual stim EC50 (in vitro report))?
Its EC50 is at least 4.19 ng/mL.

And the EC50 [6]?
Its EC50 is 0.0019 µg/mL and 5.3 nM.

What about the EC50 [7] of the same compound?
The EC50 was 0.0022 µg/mL and 6.1 nM.

What about the EC50 ([8]; Homo sapiens, read-out: MAD EC50) of the same compound?
The EC50 was 0.0041 µg/mL and 11.4 nM.

What about the EC50 ([8]; human whole blood dual stimulation, read-out: Human Compound I Cp to reach HWB dual stim EC50 (MAD PD data)) of the same compound?
Its EC50 is at least 3.47 ng/mL.

And the “Ankle diameter swelling, comparison of regimens” value ([9]; rat AIA, 5 mpk BID, 15 BID and 30 QD)?
Its value is “No significant difference”.

And the “BID vs QD dosing efficacy” value ([9]; rat arthritis model)?
The value was “BID dosing is more effective than QD dosing”.
